In patent US20240316023A1, “BENEDIN, PIPERIDINE, 2-BENZHYDRYL-3-HYDROXY-N-METHYL-, HYDROCHLORIDE AND DERIVATIVES THEREOF FOR USE IN TREATING KLEINE-LEVIN SYNDROME” (priority 2021, published 2024):

Target: T1, RXFP3 (h) (agonist radioligand) (Homo sapiens, UniProt Q9NSD7)
T1 sequence (Q9NSD7 1-469): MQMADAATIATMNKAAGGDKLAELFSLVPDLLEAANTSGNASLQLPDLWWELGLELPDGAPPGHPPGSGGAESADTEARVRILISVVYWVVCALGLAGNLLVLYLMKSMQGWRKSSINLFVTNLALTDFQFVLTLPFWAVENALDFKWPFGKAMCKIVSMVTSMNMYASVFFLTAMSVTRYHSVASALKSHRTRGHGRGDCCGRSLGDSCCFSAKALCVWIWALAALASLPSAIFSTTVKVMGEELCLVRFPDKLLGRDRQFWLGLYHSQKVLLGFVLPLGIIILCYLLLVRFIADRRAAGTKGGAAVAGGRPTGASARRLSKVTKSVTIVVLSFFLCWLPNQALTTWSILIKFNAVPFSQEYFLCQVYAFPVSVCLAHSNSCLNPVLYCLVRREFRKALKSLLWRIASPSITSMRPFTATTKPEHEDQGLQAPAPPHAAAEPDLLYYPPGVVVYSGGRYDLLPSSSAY
Assay: GPCR Biosensor cAMP Hunter assay, RXFP3
Type: cell-based
Method: Benedin is found to weakly bind with RXFP4 and RXFP3 receptors (Study FR095-0024749-Q Eurofins/leadHunter Jun. 25, 2021; unpublished data) (Table 2).
In these assays' compounds were tested in agonist and antagonist mode with the GPCR Biosensor Assays and match to this design:
1. cAMP Hunter cell lines were expanded from freezer stocks according to standard procedures.
2. Cells were seeded in a total volume of 20 μL into white walled, 384-well microplates and incubated at 37° C. for the appropriate time prior to testing.
3. cAMP modulation was determined using the DiscoverX HitHunter CAMP XS+assay.
1. For agonist determination, cells were incubated with sample in the presence of EC80 forskolin to induce response.
2. Media was aspirated from cells and replaced with 15 μL 2:1 HBSS/10 mM Hepes: CAMP XS+Ab reagent. […]
2. Microplates were read following signal generation with a PerkinElmer Envision™ instrument for chemiluminescent signal detection.
5. For Gi agonist mode assays, percentage activity is calculated using the following formula: % Activity=100%×(1−(mean RLU of test sample-mean RLU of MAX control)/(mean RLU of vehicle control−mean RLU of MAX control)).
8. For Gi antagonist or negative allosteric mode assays, percentage inhibition is calculated using the following formula: % Inhibition=100%×(mean RLU of test sample−mean RLU of EC80 control)/(mean RLU of forskolin positive control−mean RLU of […]

CN1CCCC(O)C1C(c1ccccc1)c1ccccc1 (centres unmarked) [Benedin, 2-benzhydryl-3-hydroxy-N-methyl-piperidine]
% Inhibition at 10^−5M Benedin: weakly bind | inhibition at 10 µM (10^−5 M, read-out: % Inhibition at 10^−5M Benedin): 21.4%
